Where a SMILES comes first, the peptide text is derived from it. [ ]: non-standard residue; d: D form. The star is where a group is joined. ξ: configuration not given here. NOTA = O=C(O)CN1CCN(CC(=O)O)CCN(CC(=O)*)CC1; Oic = O=C(O)[C@@H]1C[C@@H]2CCCC[C@@H]2N1; d2Nal = N[C@H](Cc1ccc2ccccc2c1)C(=O)O; ξαMeF = CC(N)(Cc1ccccc1)C(=O)O; Orn = NCCC[C@H](N)C(=O)O; βAla = NCCC(=O)O
Experiments:
[1] = system: cancer cells; test: cytotoxicity of B1R radionuclide therapy by clonogenic assays; format: cell-based; conditions: non-radioactive surrogate up to 10 μM
Procedure: Cytotoxicity of B1R radionuclide therapy was assessed in cancer cells by clonogenic assays. […] Then, media were removed and colonies fixed/stained with 0.5% methylene blue in 50% ethanol, rinsed with tap water and air dried. Colony counting was performed manually or automatically using the Image Pro Plus 5.1.

[2] = system: F98 GBM; test: small animal PET imaging, Fischer/F98 malignant glioma model; format: in vivo, rat; conditions: intravenous, F98 GBM-bearing rats
Procedure: The F98 GBM cell line (#CRL-2397) was purchased from American Type Culture Collection (ATCC). Cells were cultured as monolayers in Dulbecco's modified Eagle medium (DMEM) supplemented with 10% fetal bovine serum (FBS) and 1% penicillin-streptomycin mixture at 37° C. in a humidified 5% CO2/95% air incubator. The procedure of F98 glioma cell implantation was similar to that used in our previous studies (Côté et al., 2010, Neuropeptides, 44:177-185). […] All tumor transplantations were successful as determined by histology and/or MRI.
PET scans were performed using a LabPET8 (Gamma Medica Inc.) small animal scanner with an axial field of view of 8 cm. […] PET scans were assessed 1 h and 20 h post-injections. […] Regions of interest were traced for tumor, normal brain, heart, liver, kidney, and muscle, and the activity in each organ was measured and reported to the injected dose for percentages calculation. […] In vivo testing of the novel kinin PET radiotracers was also assessed in a model of tumor metastasis induced by the intracardiac injection of 4T1/luc (bioluminescent) mouse breast cancer cells under ultrasound guidance.

[3] = target: T1, human B1R (Homo sapiens, UniProt P46663); test: human bioassay using isolated human umbilical veins, B1R; format: cell-based; conditions: versus the βAla-linked compound
T1 construct: It particularly expresses both kinin B1R and B2R at physiological densities; from tissue; host or cells: isolated human umbilical vein
T1 sequence (P46663 1-353): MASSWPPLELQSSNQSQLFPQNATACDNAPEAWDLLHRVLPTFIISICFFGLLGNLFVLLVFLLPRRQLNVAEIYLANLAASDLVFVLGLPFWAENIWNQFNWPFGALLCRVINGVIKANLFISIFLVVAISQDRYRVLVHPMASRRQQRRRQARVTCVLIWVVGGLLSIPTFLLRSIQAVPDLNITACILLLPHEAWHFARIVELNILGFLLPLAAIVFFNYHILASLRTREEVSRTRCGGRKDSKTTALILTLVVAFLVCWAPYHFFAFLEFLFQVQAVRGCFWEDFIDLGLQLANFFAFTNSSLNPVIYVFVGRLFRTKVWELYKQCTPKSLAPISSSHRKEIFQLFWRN
From the text: The apparent affinity constants (or potency) of kinin agonist and antagonist analogues for human B1R were estimated by in vitro human bioassay using isolated human umbilical veins (Gobeil et al., 1996, supra; Côté et al., 2009, supra). […] It particularly expresses both kinin B1R and B2R at physiological densities. Apparent affinities of peptides were defined in terms of EC50 (pD2) values for agonists and IC50 values for antagonists.

Compound	anticancer activity / therapeutic efficacy [1]	further results
CC[C@H](C)[C@H](NC(=O)[C@@H](Cc1ccc2ccccc2c1)NC(=O)[C@H](CO)NC(=O)C(C)(Cc1ccccc1)NC(=O)CNC(=O)[C@@H]1CCCN1C(=O)[C@@H]1C[C@@H]2CCCC[C@@H]2N1C(=O)[C@H](CCCNC(=N)N)NC(=O)[C@H](CCCN)NC(=O)CCNC(=O)CN1CCN(CC(=O)O)CCN(CC(=O)O)CC1)C(=O)O (stereo partly shown) [Cu-NOTA-βAla-Orn^1-Arg^2-Oic^3-Pro^4-Gly^5-(αMe)Phe^6-Ser^7-DβNal^8-Ile^9-OH] ({NOTA-βAla}-[Orn]R[Oic]PG[ξαMeF]S[d2Nal]I-OH; N-terminus assumed)	not seen	–
^64Cu-NOTA-βAla-DLys^1-Arg^2-Pro^3-Pro^4-Gly^5-Phe^6-Ser^7-Pro^8-DPhe^9-OH (AKRPPGFSPF; 64Cu-NOTA-betaAla N-terminal; D-Lys1, D-Phe9; SITE (1)...(1) beta-alanine; SITE (2)...(2) D-lysine; SITE (10)...(10) D-phenylalanine)	–	detection of brain tumors by μPET [2]: properly detected relatively small brain tumors
CC[C@H](C)[C@H](NC(=O)[C@@H](Cc1ccc2ccccc2c1)NC(=O)[C@H](CO)NC(=O)C(C)(Cc1ccccc1)NC(=O)CNC(=O)[C@@H]1CCCN1C(=O)[C@@H]1C[C@@H]2CCCC[C@@H]2N1C(=O)[C@H](CCCNC(=N)N)NC(=O)[C@H](CCCN)NC(=O)CN1CCN(CC(=O)O)CCN(CC(=O)O)CC1)C(=O)O (stereo partly shown) [Cu-NOTA-Orn^1-Arg^2-Oic^3-Pro^4-Gly^5-(αMe)Phe^6-Ser^7-DβNal^8-Ile^9-OH] ({NOTA}-[Orn]R[Oic]PG[ξαMeF]S[d2Nal]I-OH; N-terminus assumed)	–	decrease in affinity to hB1R in absence of linker [3]: 10 fold
CC(=O)[O-].CC(=O)[O-].[64Cu+2] [^64Cu-acetate, reference compound]	not seen	–

Reference: patent publication US11213597B2, “Kinin-based theranostic probes for solid cancers and uses thereof” (SOCIETE DE COMMERCIALISATION DES PRODUITS DE LA RECHERCHE …, priority 2015, dated 2022)
